The text below walks through data of US8071605B2, “Piperidine compounds for use in the treatment of bacterial infections” (AstraZeneca AB, priority 2008, dated 2011).

The test addresses S. aureus GyrB ATPase (Staphylococcus aureus, UniProt P0A0K8). Put plainly: S. aureus GyrB ATPase inhibition (ammonium molybdate/malachite green phosphate detection). In kind it is biochemical. The settings on record: compound concentration of 1 μM (unless otherwise noted). The method, then:
E. coli GyrB ATPase Inhibition Activity: Compounds can be tested for inhibition of E. coli GyrB ATPase activity using an ammonium molybdate/malachite green-based phosphate detection assay (Lanzetta, P. A., L. J. Alvarez, P. S. Reinach, and O. A. Candia, 1979, 100: 95-97). Assays can be performed in multiwell plates in 30 μl reactions containing: 50 mM Hepes buffer pH 7.5, 75 mM ammonium acetate, 8.0 mM magnesium chloride, 0.5 mM ethylenediaminetetraacetic acid, 5% glycerol, 1 mM 1,4-Dithio-DL-threitol, 200 nM bovine serum albumin, 1.6 μg/ml sheared salmon sperm DNA, 400 pM E. coli GyrA, 400 pM E. coli GyrB, 250 μM ATP, and compound in dimethylsulfoxide. Reactions can be quenched with 30 μl of ammonium molybdate/malachite green detection reagent containing 1.2 mM malachite green hydrochloride, 8.5 mM ammonium molybdate tetrahydrate, and 1 M hydrochloric acid. Plates can be read in an absorbance plate reader at 650 nm and percent inhibition values are calculated using dimethylsulfoxide (2%)-containing reactions as 0% inhibition and EDTA-containing (2.4 μM) reactions as 100% inhibition controls. An IC50 measurement of compound potency for each compound can be determined from reactions performed in the presence of 10 different compound concentrations. E. coli Topoisomerase IV ATPase Inhibition Activity: Compounds can be tested for inhibition of E. coli topoisomerase IV ATPase activity as described above for E. coli GyrB except the 30 μl reactions contained the following: 20 mM TRIS buffer pH 8, 50 mM ammonium acetate, 8 mM magnesium chloride, 5% glycerol, 5 mM 1,4-Dithio-DL-threitol, 0.005% Brij-35, 5 μg/ml sheared salmon sperm DNA, 500 pM E. coli ParC, 500 pM E. coli ParE, 160 μM ATP, and compound in dimethylsulfoxide. An IC50 measurement of compound potency for each compound can be determined from reactions performed in the presence of 10 different compound concentrations. S. aureus GyrB ATPase Inhibition Activity: Compounds may be tested for inhibition of S. aureus GyrB ATPase activity using an ammonium molybdate/malachite green-based phosphate detection assay (Lanzetta, P. A., L. J. Alvarez, P. S. Reinach, and O. A. Candia, 1979, 100: 95-97). Assays can be performed in multiwell plates in 30 μl reactions containing: 50 mM Hepes buffer pH 7.5, 75 mM ammonium acetate, 8.0 mM magnesium chloride, 0.5 mM ethylenediaminetetraacetic acid, 5% glycerol, 1.0 mM 1,4-Dithio-DL-threitol, 200 nM bovine serum albumin, 1.0 μg/ml sheared salmon sperm DNA, 250 pM E. coli GyrA, 250 pM S. aureus GyrB, 250 μM ATP, and compound in dimethylsulfoxide. Reactions can be quenched with 30 μl of ammonium molybdate/malachite green detection reagent containing 1.2 mM malachite green hydrochloride, 8.5 mM ammonium molybdate tetrahydrate, and 1 M hydrochloric acid. Plates can be read in an absorbance plate reader at 650 nm and percent inhibition values can be calculated using dimethylsulfoxide (2%)-containing reactions as 0% inhibition and EDTA-containing (2.4 μM) reactions as 100% inhibition controls. An IC50 measurement of compound potency for each compound can be determined from reactions performed in the presence of 10 different compound concentrations.
Compounds of the invention were tested in an assay substantially similar to the assay described above for measuring the inhibition of S. aureus GyrB ATPase. Percent inhibition of S. aureus GyrB ATPase at a compound concentration of 1 μM (unless otherwise noted) is disclosed in the following table: […]

Structures are written as SMILES.

Sequence of S. aureus GyrB ATPase (P0AES4 whole entry): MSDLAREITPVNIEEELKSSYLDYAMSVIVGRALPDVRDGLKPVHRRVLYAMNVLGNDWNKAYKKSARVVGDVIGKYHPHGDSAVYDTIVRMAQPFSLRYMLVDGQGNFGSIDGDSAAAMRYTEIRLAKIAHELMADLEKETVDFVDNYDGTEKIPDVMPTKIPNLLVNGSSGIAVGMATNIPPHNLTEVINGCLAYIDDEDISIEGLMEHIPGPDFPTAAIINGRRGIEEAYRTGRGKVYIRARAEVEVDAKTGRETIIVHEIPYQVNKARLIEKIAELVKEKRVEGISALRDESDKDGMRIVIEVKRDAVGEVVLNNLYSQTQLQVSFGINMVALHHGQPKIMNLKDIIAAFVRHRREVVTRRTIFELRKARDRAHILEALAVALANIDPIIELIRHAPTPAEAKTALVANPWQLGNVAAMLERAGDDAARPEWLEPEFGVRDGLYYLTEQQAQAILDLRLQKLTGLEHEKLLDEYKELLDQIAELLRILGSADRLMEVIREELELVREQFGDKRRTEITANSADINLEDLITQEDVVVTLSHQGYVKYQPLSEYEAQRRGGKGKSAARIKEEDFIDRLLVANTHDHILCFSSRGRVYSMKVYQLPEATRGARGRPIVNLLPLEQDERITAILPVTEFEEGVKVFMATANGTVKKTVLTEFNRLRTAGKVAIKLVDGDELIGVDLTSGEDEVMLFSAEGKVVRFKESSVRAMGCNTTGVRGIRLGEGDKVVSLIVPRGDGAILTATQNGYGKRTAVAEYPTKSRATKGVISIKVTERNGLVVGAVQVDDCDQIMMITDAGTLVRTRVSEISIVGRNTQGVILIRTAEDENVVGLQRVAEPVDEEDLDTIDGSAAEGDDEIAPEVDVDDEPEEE
Sequence of S. aureus GyrB ATPase (P0A0K8 whole entry): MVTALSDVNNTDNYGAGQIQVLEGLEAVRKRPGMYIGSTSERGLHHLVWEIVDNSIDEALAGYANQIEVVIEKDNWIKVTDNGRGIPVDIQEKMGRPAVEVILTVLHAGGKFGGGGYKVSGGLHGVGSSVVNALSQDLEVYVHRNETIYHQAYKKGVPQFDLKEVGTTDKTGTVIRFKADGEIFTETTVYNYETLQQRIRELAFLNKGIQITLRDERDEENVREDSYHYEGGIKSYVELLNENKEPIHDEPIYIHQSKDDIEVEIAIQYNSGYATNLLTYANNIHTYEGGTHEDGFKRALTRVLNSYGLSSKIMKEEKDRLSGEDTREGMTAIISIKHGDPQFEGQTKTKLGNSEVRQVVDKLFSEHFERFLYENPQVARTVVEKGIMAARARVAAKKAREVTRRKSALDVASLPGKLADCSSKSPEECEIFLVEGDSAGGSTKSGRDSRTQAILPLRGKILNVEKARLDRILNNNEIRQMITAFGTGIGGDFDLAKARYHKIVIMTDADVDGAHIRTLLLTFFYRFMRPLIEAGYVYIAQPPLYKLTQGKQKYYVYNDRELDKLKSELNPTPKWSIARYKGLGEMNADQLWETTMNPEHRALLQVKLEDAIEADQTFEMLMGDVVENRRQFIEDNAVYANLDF

Regarding `CCCO[C@H]1CN(c2nc(-c3ncccc3F)c(C(=O)O)s2)CC[C@H]1NC(=O)c1[nH]c(C)c(Cl)c1Cl` [Example 217, 2-[(3S,4R)-4-{[(3,4-dichloro-5-methyl-1H-pyrrol-2-yl)carbonyl]amino}-3-propoxypiperidin-1-yl]-4-(3-fluoropyridin-2-yl)-1,3-thiazole-5-carboxylic acid], the inhibition – broadly, the change of the read-out against control, counted positive when it falls – at 1 µM was determined as 113%.
To `Cc1[nH]c(C(=O)N[C@@H]2CCN(c3nc(-c4cnccn4)c(C(=O)O)s3)C[C@@H]2C)c(C#N)c1Cl` [Example 29] belongs 98%; to `Cc1[nH]c(C(=O)N[C@@H]2CCN(c3nc(-c4ncccc4F)c(C(=O)O)s3)C[C@@H]2C)c(C#N)c1Cl` [Example 28], 98%.
To `CCO[C@H]1CN(c2nc(-c3ncnn3C)c(C(=O)O)s2)CC[C@H]1NC(=O)c1cc(Cl)c(C)[nH]1` [Example 16] belongs 103%; to `CO[C@H]1CN(c2nc(-c3cnc(N4CCN[C@H](C)C4)cn3)c(C(=O)O)s2)CC[C@H]1NC(=O)c1[nH]c(C)c(Cl)c1Cl` [Example 140], 107%; to `COCC(COC)Nc1cnc(-c2nc(N3CC[C@@H](NC(=O)c4[nH]c(C)c(Cl)c4Cl)[C@@H](OC)C3)sc2C(=O)O)cn1` [Example 129], 103%.
To `CO[C@H]1CN(c2nc(-c3cnc(N4CCN(CC5CCCN(C)C5)CC4)cn3)c(C(=O)O)s2)CC[C@H]1NC(=O)c1[nH]c(C)c(Cl)c1Cl` (stereo partly shown) [Example 135] belongs 98%.
Consider `CCO[C@H]1CN(c2nc(-c3ncccc3F)c(C(=O)O)s2)CC[C@H]1NC(=O)c1[nH]c(C)c(Cl)c1Cl` [Example 10], for which the inhibition at 1 µM stood at 90%.
The value for `CO[C@H]1CN(c2nc(-c3nccc(N4CCCCC4)n3)c(C(=O)O)s2)CC[C@H]1NC(=O)c1[nH]c(C)c(Cl)c1Cl` [Example 189, 2-[(3S,4R)-4-{[(3,4-dichloro-5-methyl-1H-pyrrol-2-yl)carbonyl]amino}-3-methoxypiperidin-1-yl]-4-[4-(piperidin-1-yl)pyrimidin-2-yl]-1,3-thiazole-5-carboxylic acid] was 106%; that for `CCCO[C@H]1CN(c2nc(-c3nccn3CCOC)c(C(=O)O)s2)CC[C@H]1NC(=O)c1[nH]c(C)c(Cl)c1C#N` [Example 209, 2-[(3S,4R)-4-{[(4-chloro-3-cyano-5-methyl-1H-pyrrol-2-yl)carbonyl]amino}-3-propoxypiperidin-1-yl]-4-[1-(2-methoxyethyl)-1H-imidazol-2-yl]-1,3-thiazole-5-carboxylic acid] was 105%.
To `Cc1[nH]c(C(=O)N[C@@H]2CCN(c3nc(-c4cnc(NCCN5CCN(C)CC5)cn4)c(C(=O)O)s3)C[C@@H]2C)c(Cl)c1Cl` [Example 175, 2-[(3S,4R)-4-{[(3,4-dichloro-5-methyl-1H-pyrrol-2-yl)carbonyl]amino}-3-methylpiperidin-1-yl]-4-(5-{[2-(4-methylpiperazin-1-yl)ethyl]amino}pyrazin-2-yl)-1,3-thiazole-5-carboxylic acid] belongs 106%.
The value for `CO[C@H]1CN(c2nc(-c3nccc(N4CCN(CC(C)C)CC4)n3)c(C(=O)O)s2)CC[C@H]1NC(=O)c1[nH]c(C)c(Cl)c1Cl` [Example 192, 2-[(3S,4R)-4-{[(3,4-dichloro-5-methyl-1H-pyrrol-2-yl)carbonyl]amino}-3-methoxypiperidin-1-yl]-4-{4-[4-(2-methylpropyl)piperazin-1-yl]pyrimidin-2-yl}-1,3-thiazole-5-carboxylic acid] was 108%.
In the case of `COCCn1ccnc1-c1nc(N2CC[C@@H](NC(=O)c3[nH]c(C)c(Cl)c3C#N)[C@@H](C)C2)sc1C(=O)O` [Example 27], the inhibition at 1 µM came to 102%.
To `C=CCO[C@H]1CN(c2nc(-c3ncnn3C)c(C(=O)O)s2)CC[C@H]1NC(=O)c1[nH]c(C)c(Cl)c1C#N` [Example 5] belongs 5%; to `CCN1CCN(c2cnc(-c3nc(N4CC[C@@H](NC(=O)c5[nH]c(C)c(Cl)c5Cl)[C@@H](OC)C4)sc3C(=O)O)cn2)CC1` [Example 138], 103%.
To `Cc1[nH]c(C(=O)N[C@@H]2CCN(c3nc(-c4ncnn4C)c(C(=O)O)s3)C[C@@H]2C)c(C#N)c1Cl` [Example 26] belongs 97%; to `CCO[C@H]1CN(c2nc(-c3cnc(NCCN4CCNC4=O)cn3)c(C(=O)O)s2)CC[C@H]1NC(=O)c1[nH]c(C)c(Cl)c1Cl` [Example 93], 94%; to `CCO[C@H]1CN(c2nc(-c3cnc(N4CCN(CC5CCCO5)CC4)cn3)c(C(=O)O)s2)CC[C@H]1NC(=O)c1[nH]c(C)c(Cl)c1Cl` (stereo partly shown) [Example 104], 105%.
Take `CO[C@H]1CN(c2nc(-c3cnc(N4CCOCC4)cn3)c(C(=O)O)s2)CC[C@H]1NC(=O)c1[nH]c(C)c(Cl)c1Cl` [Example 125]: the inhibition at 1 µM amounted to 111%.
For the molecule `CCO[C@H]1CN(c2nc(-c3cnc(NC(COC)COC)cn3)c(C(=O)O)s2)CC[C@H]1NC(=O)c1[nH]c(C)c(Cl)c1Cl` [Example 92], the inhibition at 1 µM was 102%.
The value for `CO[C@H]1CN(c2nc(-c3nccc(N4CCOCC4)n3)c(C(=O)O)s2)CC[C@H]1NC(=O)c1[nH]c(C)c(Cl)c1Cl` [Example 190, 2-[(3S,4R)-4-{[(3,4-dichloro-5-methyl-1H-pyrrol-2-yl)carbonyl]amino}-3-methoxypiperidin-1-yl]-4-[4-(morpholin-4-yl)pyrimidin-2-yl]-1,3-thiazole-5-carboxylic acid] was 100%.
The value for `Cc1[nH]c(C(=O)N[C@@H]2CCN(c3nc(-c4ncccc4F)c(C(=O)O)s3)C[C@@H]2C)c(Cl)c1Cl` [Example 24] was 120%; that for `Cc1[nH]c(C(=O)N[C@@H]2CCN(c3nc(-c4cnccn4)c(C(=O)O)s3)C[C@@H]2C)cc1Cl` [Example 21] was 118%.
On to `CCO[C@H]1CN(c2nc(-c3ncnn3C)c(C(=O)O)s2)CC[C@H]1NC(=O)c1[nH]c(C)c(Cl)c1C#N` [Example 12], for which the inhibition at 1 µM was found to be 106%.
Take `CCO[C@H]1CN(c2nc(-c3cnccn3)c(C(=O)O)s2)CC[C@H]1NC(=O)c1[nH]c(C)c(Cl)c1Cl` [Example 11]: the inhibition at 1 µM is 101%.
The value for `CCO[C@H]1CN(c2nc(-c3cnccn3)c(C(=O)O)s2)CC[C@H]1NC(=O)c1[nH]c(C)c(Cl)c1C#N` [Example 15] was 98%; that for `CCCO[C@H]1CN(c2nc(-c3ncccc3F)c(C(=O)O)s2)CC[C@H]1NC(=O)c1cc(Cl)c(C)[nH]1` [Example 202, 2-[(3S,4R)-4-{[(4-chloro-5-methyl-1H-pyrrol-2-yl)carbonyl]amino}-3-propoxypiperidin-1-yl]-4-(3-fluoropyridin-2-yl)-1,3-thiazole-5-carboxylic acid] was 103%; that for `C=CCO[C@H]1CN(c2nc(-c3cnccn3)c(C(=O)O)s2)CC[C@H]1NC(=O)c1[nH]c(C)c(Cl)c1Cl` [Example 4] was 97%.
The value for `CO[C@H]1CN(c2nc(-c3cnc(OCCN4CCN(C)CC4)cn3)c(C(=O)O)s2)CC[C@H]1NC(=O)c1[nH]c(C)c(Cl)c1Cl` [Example 64] was 104%.
Consider `CCO[C@H]1CN(c2nc(-c3cnc(N4CCN(C(CC)CC)CC4)cn3)c(C(=O)O)s2)CC[C@H]1NC(=O)c1[nH]c(C)c(Cl)c1Cl` [Example 99], for which the inhibition at 1 µM is 106%.
To `Cc1[nH]c(C(=O)N[C@@H]2CCN(c3nc(-c4cnc(N5CCN(CC6CCCCC6)CC5)cn4)c(C(=O)O)s3)C[C@@H]2C)c(Cl)c1Cl` [Example 178, 4-{5-[4-(cyclohexylmethyl)piperazin-1-yl]pyrazin-2-yl}-2-[(3S,4R)-4-{[(3,4-dichloro-5-methyl-1H-pyrrol-2-yl)carbonyl]amino}-3-methylpiperidin-1-yl]-1,3-thiazole-5-carboxylic acid] belongs 102%.
